According to patent US4024256A, “Method and composition for treating urinary tract infections” (priority 1975, dated 1977):
Values joined by “and” are separate entries in the source; they are usually repeats but may differ in a detail not shown here. Equal entries are not always repeated. “Also recorded” adds a separate entry of the source. Where two headings read alike, the source gives them in different places.

Experiments:
Proteus rettgeri [1] = assay: static study in synthetic urine: viable bacteria, Proteus rettgeri (FIG. 2); format: cell-based
Description: (§1) Static studies were conducted to illustrate the synergistic effect achieved in accordance with the present invention through the combined employment of a source of methenamine, i.e., methenamine itself and a source of hydroxamate groups, i.e., acetohydroxamic acid. In order to achieve reproducibility of results with large quantities or urine required for these studies a synthetic urine was formulated based on the proportion of solutes found in the urine from normal human subjects. The composition of such urine was as follows: Brain heart infusion (BHI) broth in a final concentration of 5% was added to support bacterial growth. The pH of the synthetic urine prior to addition of the BHI broth was 5.7 - 5.8. […] In these tests the methenamine was utilized in a final concentration of 0.9 milligrams per milliliter. […] Dally and […], 1969, Analytical BioChem 28:13-21. […] These concentrations which were selected in the static studies were concentrations which would be achievable in the urine of patients with normal renal function. […] At each pH level a set of four tubes was obtained, with these tubes being as follows: 1. Urine alone (control); 2. Urine plus methenamine; 3. Urine plus acetohydroxamic acid; and 4. Urine plus acetohyroxamic acid plus methenamine. […] At varying time intervals aliquots were removed for pH determination and bacterial enumeration by serial tenfold dilution.

[2] = characteristics of acetohydroxamic acid (Table 1), pKa; format: physicochemical
Excerpt: These aliphatic hydroxamic acids including formohydroxamic acid, acetohydroxamic acid, propionohydroxamic acid and isobutyhydroxamic acid. […] This source of hydroxamate groups has the following characteristics: […]

Proteus [3] = assay: static-dynamic system, bacteriostasis against Proteus, statements over all experiments; format: cell-based, Proteus mirabilis, Proteus rettgeri, Proteus morgani
Description: In this example in vitro investigations were carried out using a static-dynamic system delineating (1) bacteriostatic dose-response relation for methenamine against Proteus, and (2) a synergistic bacteriostatic dose-response relation for methenamine and acetohydroxamic acid against Proteus. […] The tubes were placed in a bacteriological incubator at 37° C. […] Incubation of the tubes at 37° and sequential dilutions were made a 6 hour intervals for 24 hours. The variables for each of eight experiments are detailed in Table 2. Bacterial colony forming units (cfu) and urine pH were determined at the beginning and at the completion of each six hour incubation. The cfu units present after six hours of incubation are graphed in FIGS. 4-15. […] When bacteriostatis was absent, the number of cfu after six hours of incubation was equal to or greater than the number of cfu at the beginning of incubation. A strain of Proteus mirabilis isolated from the urine of patients with urinary tract infections was used in most experiments. Overnight growth in brain heart infusion (BHI) broth regularly produced 10^9 cfu/ml. The overnight culture was centrifuged at 3000 rpm for 20 minutes. The supernatant was discharged, and the bacterial pellet was resuspended in an equal volume of synthetic urine. […]

bacterial urease = details: cited from earlier work
Proteus mirabilis [4] = assay: Proteus mirabilis infected bladder stones (zinc disc) in rats; format: in vivo, male Sprague-Dawley rats
Description: This example was carried out to illustrate the effectiveness of administering a source of hydroxamate groups, e.g., acetohydroxamic acid in eliminating the pathogenicity of urinary tract infections and in dissolving or reducing infected bladder stones.
The formation of infected bladder stones was induced in 250 gram male Sprague-Dawley rats, according to the method described in "Experimental Urolithiasis VIII -- Furadantin in Treatment of Experimental Proteus Infection with Stone Formation" C. W. Vermuelen and R. Goetz, Journal of Urology, 72:99, 1954. Rats wer anesthetized with ether and the abdominal wall swabbed with 70% ethyl alcohol. The urinary bladder was entered through a small suprapubic incision. Zinc discs, 6 mm. in diameter, were dipped into a saline suspension containing 10^7 Proteus mirabilis per ml (infective discs) and immediately inserted into the bladder. Discs handled in this fashion carried 10^5 ± 15% organisms. The bladder was closed with a single purse-string suture of 3-0 chromic catgut, and the skin was approximated with metallic clips. All animals were fasted overnight following the surgical procedure and resumed their usual diet the following day.
Rats were housed individually in stainless steel metabolic cages and were fed Purina Rat Chow pellets ad lib. Fluid was given in stainless steel cups as a solution of 5-20% sucrose in water.

Proteus mirabilis [5] = assay: dynamic model of the urinary tract (FIGS. 16, 17); format: cell-based
Description: This example was carried out using a dynamic model as described in connection with Example 2. […] Proteus species, isolated from the urine of patients with known urinary infection, were maintained in the laboratory by monthly transfer on agar […]. These organisms grew to about 10^9 colony forming units (cfu) per ml after overnight growth at 37° C in brain heart infusion broth (BHI). […] The pH of this synthetic urine was 5.85. […] In this dynamic system urine with or without acetohydroxamic acid was pumped at 48 ml/hr from reservoirs via an auto-analyzer pump into reaction chambers which were incubated in a shaking water bath at 37° C. […] Every six hours the reaction chambers were emptied except for a 5 ml residual, and the sequence was repeated. In these experiments the pH, ammonia concentration and cfu per ml urine were determined for each reaction chamber at the end of each six hour period.

Proteus rettgeri [6] = assay: dynamic study resembling a Proteus infected human bladder (FIG. 3); format: cell-based
Description: Dynamic studies were conducted to further illustrate the synergistic effect associated with the combined presence of a source of methenamine, i.e., methenamine itself and a source of hyroxamate groups, i.e., acetohydroxamic acid in the urine. […] Utilizing a multicassetts roller pump, urine of a pH of 5.85 was pumped at 40 milliliters per hour from three reservoir flasks into three reaction chambers. […] An aqueous solution of 18 milligrams per milliliter of methenamine at a pH of 7.5 was pumped into reaction chambers 1 and 3 at a rate of two milliliters per hour yielding a final concentration of methenamine of 0.9 milligrams per milliliter. […] The reaction chambers contained gently rotating magnetic stirrers and were kept in a warm bath at 37° C. […] At 4 - 6 hour intervals the volume of urine in each reaction chamber was recorded, the pH of each reaction chamber was determined and serial dilutions were carried out for bacterial enumeration.

Proteus species [7] = assay: static study in synthetic urine: inhibition of alkalinization by Proteus species; format: cell-based; details: for effect on alkalinization: methenamine 0.9 mg/ml
Description: as §1

Proteus species [8] = assay: static study in synthetic urine: anti-bacterial effect, all Proteus species studied; format: cell-based; details: general statement
Description: as §1

[9] = system: urease producing bacteria; details: cited from earlier work
[10] = cited from earlier work
Proteus [11] = assay: preliminary investigations in the dynamic system; format: cell-based; details: methenamine 0.9 mg/ml
Excerpt: Utilizing a multicassetts roller pump, urine of a pH of 5.85 was pumped at 40 milliliters per hour from three reservoir flasks into three reaction chambers. […] An aqueous solution of 18 milligrams per milliliter of methenamine at a pH of 7.5 was pumped into reaction chambers 1 and 3 at a rate of two milliliters per hour yielding a final concentration of methenamine of 0.9 milligrams per milliliter. […] The reaction chambers contained gently rotating magnetic stirrers and were kept in a warm bath at 37° C.

Proteus mirabilis [12] = assay: static-dynamic system, bacteriostasis against Proteus mirabilis (Experiments A-J); format: cell-based
Description: In this example in vitro investigations were carried out using a static-dynamic system delineating (1) bacteriostatic dose-response relation for methenamine against Proteus, and (2) a synergistic bacteriostatic dose-response relation for methenamine and acetohydroxamic acid against Proteus. […] The tubes were placed in a bacteriological incubator at 37° C. […] Incubation of the tubes at 37° and sequential dilutions were made a 6 hour intervals for 24 hours. The variables for each of eight experiments are detailed in Table 2. Bacterial colony forming units (cfu) and urine pH were determined at the beginning and at the completion of each six hour incubation. The cfu units present after six hours of incubation are graphed in FIGS. 4-15. […] When bacteriostatis was absent, the number of cfu after six hours of incubation was equal to or greater than the number of cfu at the beginning of incubation. A strain of Proteus mirabilis isolated from the urine of patients with urinary tract infections was used in most experiments. Overnight growth in brain heart infusion (BHI) broth regularly produced 10^9 cfu/ml. The overnight culture was centrifuged at 3000 rpm for 20 minutes. The supernatant was discharged, and the bacterial pellet was resuspended in an equal volume of synthetic urine. The bacteria were resuspended in synthetic urine to prevent differences in pH as the bacteria were inoculated into tubes of synthetic urine. […] The results are illustrated in FIGS. 4-15 which relates respectively to Experiment A-L of Table 2. Each of FIGS. 4-15 represents colony forming units (cfu) present at the completion of six hour incubations. 100-fold dilutions were made prior to initiating subsequent six hour incubations. Each figure also includes a line representative of theoretically perfect bacteriostasis.

[13] = individual animal, average of day individual values, listed as AHA
[14] = individual animal, listed as AHA

CC(=O)NO [acetohydroxamic acid]
bacteriostatic effect (Proteus rettgeri [1]; acetohydroxamic acid 1.9 mg/ml): slight bacteriostatic effect | number of bacteria (Proteus rettgeri [1]; acetohydroxamic acid 1.9 mg/ml, within eight to eighteen hours): ~10^8 per milliliter | pKa [2]: 9.32 | bacteriostatic effect (Proteus [3]; acetohydroxamic acid ≤0.9 mg/ml): no bacteriostatic effect | urease inhibiting effect (bacterial urease): appear to possess the greatest urease inhibiting effect | concentration of acetohydroxamic acid in urine, mean (150 mg offered daily orally, average 100 mg ingested): 2880 µg/mL | Urine Acetohy. [13]: .3 mg/mL and 1.5 mg/mL and 2.5 mg/mL and 1.3 mg/mL and .9 mg/mL and 1.6 mg/mL and .5 mg/mL | urine pH (group) (Proteus mirabilis [4]; acetohydroxamic acid treated animals): remained in the normal range; also recorded: in the physiological range | gross evidence of pyelonephritis or renal stone formation (group) (Proteus mirabilis [4]; autopsy): none had gross evidence of pyelonephritis or renal stone formation | kidney histology (group) (Proteus mirabilis [4]; autopsy): nearly all had normal kidneys histologically | Autopsy Gross Kidney (Proteus mirabilis [4]; individual animal): Normal | Autopsy Urine bacteria/ml (Proteus mirabilis [4]; individual animal): > 10^5 bacteria/ml | survival of animal (Proteus mirabilis [4]; individual animal): Expired | Urine pH (Proteus mirabilis [4]; [13]): 7.4 and 6.6 and 6.7 and 7.0 and 6.3 and 6.5 and 6.4 | Autopsy Microscopic Kidney (Proteus mirabilis [4]; [14]): Pyelonephritis; also recorded: Normal | Autopsy Stone Composition (Proteus mirabilis [4]; [14]): Struvite; also recorded: Apatite | Autopsy Stone wt. (Proteus mirabilis [4]; [14]): 12 mg and 4 mg and 21 mg and 11 mg and 1 mg and 19 mg and 3 mg and 7 mg | tissue damage and virulence of the disease (Proteus mirabilis [4]; infected rats): tissue damage and virulence of the disease decreased | P, difference in mean urine pH between control and treated groups (Proteus mirabilis [4]; rat, in vivo): < 0.01 | P, difference in stone formation between control and treated groups (Proteus mirabilis [4]; rat, in vivo): < 0.01 | Proteus mirabilis in urine at autopsy (group) (Proteus mirabilis [4]; seventh day): greater than 10^5 per ml | bladder stone formation (group) (Proteus mirabilis [4]; seventh day): minimal; also recorded: significantly less bladder stone formation than the control rats | effect on pH (Proteus mirabilis [5]; acetohydroxamic acid 1 mg/ml without methenamine): maintained the pH at normal levels | bacterial growth (Proteus mirabilis [5]; acetohydroxamic acid, higher concentration 1.0 mg/ml (FIG. 16)): slightly inhibited bacterial growth | alkalinization (Proteus rettgeri [6]; acetohydroxamic acid 1.9 mg/ml): alkalinization of Proteus was inhibited | bacteriostatic effect (Proteus rettgeri [6]; acetohydroxamic acid 1.9 mg/ml): minor bacteriostatic effect | inhibition of alkalinization (Proteus species [7]; acetohydroxamic acid 1.9 mg/ml, synthetic urine, 37°): inhibited alkalinizaton for the first eight hours | time within which effect as urease inhibitor was overcome (Proteus species [7]; acetohydroxamic acid 1.9 mg/ml, bacterial proliferation leading to alkaline pH): ≤ 24 h | anti-bacterial effect with regard to bacteria of the species Proteus (Proteus species [8]): slight anti-bacterial effect

O=CNO [formohydroxamic acid]
urease inhibiting effect (bacterial urease): appear to possess the greatest urease inhibiting effect

CC(C)C(=O)NO [isobutyhydroxamic acid]
urease inhibiting effect (bacterial urease): appear to possess the greatest urease inhibiting effect

C1N2CN3CN1CN(C2)C3 [methenamine mandelate]
effect on overcoming the alkalinization of the urine ([9]; urinary infections produced by urease producing bacteria): no real effect on overcoming the alkalinization of the urine

C1N2CN3CN1CN(C2)C3 [methenamine, hexamethenamine tetramine]
anti-bacterial effect, dependence on initial pH (Proteus rettgeri [1]; methenamine 0.9 mg/ml): proportional to the initial pH | release of formaldehyde ([10]; pH 5.0): excellent release of formaldehyde | release of formaldehyde ([10]; pH 5.5): good release of formaldehyde | release of formaldehyde ([10]; pH 6.0): generally adequate for the treatment of most urinary tract infections | conversion and release of formaldehyde ([10]; pH of the urine 6.5): insufficient conversion and release of formaldehyde | bacteriostasis (Proteus [3]; methenamine 0.1 mg/ml, acidic urine, 10^4 - 10^7 per ml): bacteriostasis | growth of Proteus and alkalinization of urine versus synthetic urine alone (Proteus [11]): affected growth of Proteus and alkalinization of urine only slightly | effectiveness at alkaline pH ([9]; methenamine alone, typical anti-bacterial dosage, alkaline pH): not effective at an alkaline pH | anti-bacterial effect of the methenamine ([9]; pH of the urine reaches 6.5): totally diminished | effect on pH (Proteus mirabilis [5]; lower concentrations of methenamine): the pH rapidly became alkaline and remained so throughout | bacterial growth (Proteus mirabilis [5]; methenamine alone 0.5 mg/ml (FIG. 16)): slightly inhibited bacterial growth | effect on pH (Proteus mirabilis [5]; methenamine alone, 0.5 mg/ml): initial tendency for the pH to neutralize in the presence of methenamine alone was overcome by the end of 18-24 hours | colony count by the end of the second time period and throughout (Proteus rettgeri [6]; methenamine 0.9 mg/ml): greater than 10^7 per milliliter | number of bacteria, first six hours (Proteus rettgeri [6]; methenamine 0.9 mg/ml): fell slightly during the first six hours | pH at the end of each four to eight hour period (Proteus rettgeri [6]; methenamine 0.9 mg/ml): exceeded 8.5 | effect on alkalinization (Proteus species [7]; between pH 5.3 and 6.5): alkalinization was inhibited in proportion to the initial urine acidity | effect on alkalinization (Proteus species [7]; initial pH less than 5.3): only a slight upward drift was observed | effect on alkalinization (Proteus species [7]; pH greater than 6.5): did not alter progressive alkalinization | bacteriostatic effect in alkaline urine versus acidic urine (Proteus mirabilis [12]; alkaline urine (FIGS. 12 and 13; experiments I, J)): much less bacteriostatic in alkaline urine | bacteriostatic activity (Proteus mirabilis [12]; methenamine 0.05 mg/ml, pH 5.9, 10^4 /ml and 10^5 /ml (Experiments A, B)): some bacteriostatic activity; also recorded: mild bacteriostatic effect | bacteriostasis (Proteus mirabilis [12]; methenamine 0.05 mg/ml, ≥10^6 /ml Proteus (Experiments C through H)): no bacteriostasis | bacteriostatic activity (Proteus mirabilis [12]; methenamine 0.05 mg/ml, ≥ 10^6 Proteus/ml (FIGS. 4-7)): little or no bacteriostatic activity | bacteriostatic effect compared with methenamine 0.1 mg/ml (Proteus mirabilis [12]; methenamine 0.2 mg/ml (FIGS. 8, 9)): consistently exerted a greater bacteriostatic effect than did methenamine 0.1 mg/ml | bacteriostasis (Proteus mirabilis [12]; methenamine 0.2 mg/ml, acidic urine (Experiments E and F)): bacteriostasis

CCC(=O)NO [propionohydroxamic acid]
urease inhibiting effect (bacterial urease): appear to possess the greatest urease inhibiting effect
